System: Reactive Oxygen Species (ROS)
Test: DPBF assay of photodynamic and sonodynamic ROS generation
Conditions: complexed with mPEG-UA nanocarrier vesicles
From the text: Photodynamic Reactive Oxygen Species (ROS) were generated by irradiation of red/green/blue (RGB) LEDs at 8 mW/cm^2 and detected by the 1,3-diphenylisobenzofuran (DPBF) assay. A photoreactive iron complex (Fe3[diCl-Sal-AHA]3OCH3 Na) from the Baldwin Lab (UC Chemistry) was employed as the photosensitizer and complexed with the mPEG-UA nanocarrier vesicles.

Substance	photodynamic ROS generation (RGB LEDs at 8 mW/cm^2)	sonodynamic ROS generation (sonication at 1.0 MHz, 3 W/cm^2)
Fe3[diCl-Sal-AHA]3OCH3 Na	photodynamic ROS are generated	
sodium copper chlorophyllin		Sonodynamic ROS were generated

Reference: patent US11717578B2, “Undecylenic acid-based nanocarriers for targeted drug delivery” (University of Cincinnati, priority 2017, dated 2023)
